Data from ChEMBL document CHEMBL5126512, “Current status of carbazole hybrids as anticancer agents” (Eur J Med Chem, 2022).

Experiments:
KYSE-30 = test: Antiproliferative activity against human KYSE-30 cells assessed as cell growth inhibition measured after 48 hrs by CCK-8 assay; assay type: functional, cell-based; details: KYSE-30, 48 h
KYSE-410 = test: Antiproliferative activity against human KYSE-410 cells assessed as cell growth inhibition measured after 48 hrs by CCK-8 assay; assay type: functional, cell-based; details: KYSE-410, 48 h
KYSE-140 = test: Antiproliferative activity against human KYSE-140 cells assessed as cell growth inhibition measured after 48 hrs by CCK-8 assay; assay type: functional, cell-based; details: KYSE-140, 48 h
KYSE-510 = test: Antiproliferative activity against human KYSE-510 cells assessed as cell growth inhibition measured after 48 hrs by CCK-8 assay; assay type: functional, cell-based; details: KYSE-510, 48 h
[1] = Antiproliferative activity against human KYSE-170 cells assessed as cell growth inhibition measured after 48 hrs by CCK-8 assay; assay type: functional, cell-based; details: KYSE-170, 48 h
[2] = Cytotoxicity against human HaCaT cells assessed as cell growth inhibition measured after 24 hrs by MTT assay; assay type: toxicity, cell-based
[3] = Cytotoxicity against HEK293 cells assessed as cell growth inhibition measured after 24 hrs by MTT assay; assay type: toxicity, cell-based; details: human
DLD-1 = test: Cytotoxicity against human DLD-1 cells assessed as cell growth inhibition measured after 24 hrs by MTT assay; assay type: functional, cell-based; details: DLD-1, 24 h
[4] = Cytotoxicity against human Kidney epithelial cells assessed as cell growth inhibition measured after 24 hrs by XTT assay; assay type: toxicity, cell-based
HepG2 [5] = test: Antiproliferative activity against human HepG2 cells assessed as cell growth inhibition measured after 48 hrs by SRB assay; assay type: functional, cell-based; details: HepG2, 48 h
MIA PaCa-2 = test: Antiproliferative activity against human MIA PaCa-2 cells assessed as cell growth inhibition measured after 48 hrs by SRB assay; assay type: functional, cell-based; details: MIA PaCa-2, 48 h
MCF7 [6] = test: Antiproliferative activity against human MCF7 cells assessed as cell growth inhibition measured after 48 hrs by SRB assay; assay type: functional, cell-based; details: MCF7, 48 h
HepG2 [7] = test: Antitumor activity against human HepG2 xenografted in BALB/c nude mouse assessed as tumor growth inhibition at 10 mg/kg, iv administered every 2 days and measured upto 30 days relative to control; assay type: functional; details: HepG2, 720 h, time <= 30 day, read-out: TGI
Bel-7402 = test: Antiproliferative activity against human Bel-7402 cells assessed as cell growth inhibition measured after 48 hrs by SRB assay; assay type: functional, cell-based; details: Bel-7402, 48 h
Hep 3B2 = test: Cytotoxicity against human Hep3B cells assessed as cell growth inhibition measured after 48 hrs by MTT assay; assay type: functional, cell-based
HepG2 [8] = test: Cytotoxicity against human HepG2 cells assessed as cell growth inhibition measured after 48 hrs by MTT assay; assay type: functional, cell-based; details: HepG2, 48 h
SMMC-7721 = test: Cytotoxicity against human SMMC-7721 cells assessed as cell growth inhibition measured after 48 hrs by MTT assay; assay type: functional, cell-based; details: SMMC-7721, 48 h
[9] = Cytotoxicity against human QSG7701 cells assessed as cell growth inhibition measured after 48 hrs by MTT assay; assay type: toxicity, cell-based
HeLa [10] = test: Cytotoxicity against human HeLa cells assessed as cell growth inhibition by MTT assay; assay type: functional, cell-based
HCT-116 = test: Antitumor activity against human HCT-116 cells xenografted in BALB/c nu/nu mouse assessed as reduction in tumor volume at 100 mg/kg/day, ip administered for 20 days measured by caliper relative to control; assay type: functional; parameters: scale not given: the % may be the effect or the level left; details: time 20 day
A549 [11] = test: Antitumour activity against human A549 cells xenografted in mouse assessed as reduction in tumor volume at 3 mg/kg relative to control; assay type: functional; parameters: scale not given: the % may be the effect or the level left
NCI-H1299 = test: Cytotoxicity against human NCI-H1299 cells assessed as cell growth inhibition by Trypan blue staining based analysis; assay type: functional; details: pooled result: one value given for 6 cell lines, strains, targets or settings
HeLa [12] = test: Antiproliferative activity against human HeLa cells assessed as cell growth inhibition by MTT assay; assay type: functional, cell-based
HeLa [13] = test: Potency index, ratio of cisplatin IC50 to compound IC50 for antiproliferative activity against human HeLa cells by MTT assay; assay type: functional
MDA-MB-231 [14] = test: Cytotoxicity against human MDA-MB-231 cells assessed as cell growth inhibition measured after 72 hrs by MTT assay; assay type: functional, cell-based; details: MDA-MB-231, 72 h
[15] = Cytotoxicity against human MCF-12A cells assessed as cell growth inhibition measured after 72 hrs by MTT assay; assay type: toxicity, cell-based
MCF7 [16] = test: Cytotoxicity against human MCF7 cells assessed as cell growth inhibition measured after 72 hrs by MTT assay; assay type: functional, cell-based; details: MCF7, 72 h
HeLa [17] = test: Antiproliferative activity against human HeLa cells assessed as cell growth inhibition by WST-1 assay; assay type: functional, cell-based
CCRF-CEM = test: Antiproliferative activity against human CCRF-CEM cells assessed as cell growth inhibition measured after 48 hrs by SRB assay; assay type: functional, cell-based
A549 [18] = test: Antiproliferative activity against human A549 cells assessed as cell growth inhibition measured after 48 hrs by SRB assay; assay type: functional, cell-based; details: A549, 48 h
MCF7 [19] = test: Antiproliferative activity against human MCF7 cells assessed as cell growth inhibition measured after 72 hrs by MTT assay; assay type: functional, cell-based; details: MCF7, 72 h
MDA-MB-231 [20] = test: Antiproliferative activity against human MDA-MB-231 cells assessed as cell growth inhibition measured after 72 hrs by MTT assay; assay type: functional, cell-based; details: MDA-MB-231, 72 h
HepG2 [21] = test: Cytotoxicity against human HepG2 cells assessed as cell growth inhibition measured after 72 hrs by MTT assay; assay type: functional, cell-based; details: HepG2, 72 h
[22] = Cytotoxicity against mouse 3T3-L1 cells assessed as cell growth inhibition measured after 72 hrs by MTT assay; assay type: toxicity, cell-based
[23] = Cytotoxicity against human MCF-10A cells assessed as cell growth inhibition measured after 72 hrs by MTT assay; assay type: toxicity, cell-based
HeLa [24] = test: Cytotoxicity against human HeLa cells assessed as cell growth inhibition measured after 72 hrs by MTT assay; assay type: functional, cell-based; details: pooled result: one value given for 3 cell lines, strains, targets or settings

**Q.** Which IC50 (KYSE-30) does the source give for `COc1ccc(NS(=O)(=O)c2ccc3c(c2)c2cc(O)ccc2n3C)c(OC)n1` here?
**A.** 0.01 µM

**Q.** What about the IC50 (KYSE-410) of the same compound?
**A.** 0.01 µM

**Q.** What about the IC50 (KYSE-140) of the same compound?
**A.** 0.01 µM

**Q.** What about the IC50 (KYSE-510) of the same compound?
**A.** 0.01 µM

**Q.** And the IC50 [1]?
**A.** 0.01 µM

**Q.** What does the source list for `COc1ccc2c(c1)[nH]c1c3c(c(C)cc12)OC(C)(C)C=C3`?
**A.** IC50 at 24 h [2]: > 100 µM; IC50 at 24 h [3]: > 100 µM; IC50 (DLD-1): 17.9 µM

**Q.** Which IC50 at 24 h [4] does the source give for `CN(C)CCCNC(=O)c1ccc(-n2cc(-c3ccc4c(c3)c3ccccc3n4CCCN(C)C)nn2)cc1` here?
**A.** > 30 µM

**Q.** Which IC50 (HepG2 [5]) does the source give for `COc1ccc(NS(=O)(=O)c2ccc3c(c2)c2cc(OCCCN4CCN(C)CC4)ccc2n3C)c(OC)n1` here?
**A.** 5.67 µM

**Q.** What about the IC50 (MIA PaCa-2) of the same compound?
**A.** 5.67 µM

**Q.** What about the IC50 (MCF7 [6]) of the same compound?
**A.** 5.67 µM

**Q.** And the inhibition in vivo at 10 mg/kg (HepG2 [7])?
**A.** 61.1%

**Q.** And the IC50 (Bel-7402)?
**A.** 5.67 µM

**Q.** For `CCOc1ccc2c(c1)c1c(n2CCN2CCNCC2)-c2cc(C(C)C)ccc2[C@@]2(C)CCC[C@@](C)(C(=O)OC)C12` (some centres undefined), which IC50 (Hep 3B2) is on record?
**A.** 0.51 µM

**Q.** And the IC50 (HepG2 [8])?
**A.** 0.51 µM

**Q.** And the IC50 (SMMC-7721)?
**A.** 0.51 µM

**Q.** What about the IC50 at 48 h [9] of the same compound?
**A.** 12.5 µM

**Q.** With `CCn1c2ccccc2c2cc(/C=N/NC(=O)c3ccccc3Cl)ccc21` as the compound, how does the IC50 (HeLa [10]) read?
**A.** 3.12 µM

**Q.** And the Activity (HCT-116)?
**A.** 35%

**Q.** Which results are given for `CCn1c2ccccc2c2cc(NC(=O)NCCN3CCN(C(=O)c4ccco4)CC3)ccc21`?
**A.** Activity (A549 [11]): 65%; IC50 (NCI-H1299): 1.78 µM

**Q.** Which IC50 (HeLa [12]) does the source give for `CCCCCCCCn1c2ccc(/C=C/C(=O)c3ccccc3[N+](=O)[O-])cc2c2cc(C(C)=O)ccc21` here?
**A.** 5.64 µM

**Q.** What about the “Ratio IC50” value (HeLa [13]) of the same compound?
**A.** 2

**Q.** Which results are given for `CC[n+]1c(/C=C/c2ccc3c(c2)c2ccccc2n3CCCCn2ccnc2)sc2ccccc21`?
**A.** IC50 (MDA-MB-231 [14]): 11.4 µM; IC50 at 72 h [15]: > 18 µM; IC50 (MCF7 [16]): 9.5 µM

**Q.** Which IC50 (HeLa [17]) does the source give for `CC(C)=CCCC1(C)C=Cc2c(c(C)cc3c2[nH]c2c(-c4c(O)ccc5c4[nH]c4c6c(c(C)cc45)OC(C)(CCC=C(C)C)C=C6)c(O)ccc23)O1` (centres undefined) here?
**A.** 20 µM

**Q.** What does the source list for `COc1ccc2c(c1)c1cc3c(-c4c([N+](=O)[O-])ncn4C)nccc3c(C)c1n2C`?
**A.** IC50 (CCRF-CEM): 1.08 µM; IC50 (A549 [18]): 1.08 µM; IC50 (MCF7 [6]): 1.08 µM

**Q.** For `C[N+](C)(C)CCN1CCN(CCCCCn2c3ccccc3c3cc(Cl)ccc32)CC1`, which IC50 (MCF7 [19]) is on record?
**A.** 4.4 µM

**Q.** And the IC50 (MDA-MB-231 [20])?
**A.** 4.4 µM

**Q.** Which IC50 (HepG2 [21]) does the source give for `COc1cc(NC(=O)Nc2cc(C)c3[nH]c4ccc(C)cc4c3c2C)cc(OC)c1OC` here?
**A.** 1.93 µM

**Q.** What about the IC50 (MDA-MB-231 [14]) of the same compound?
**A.** 1.93 µM

**Q.** What about the IC50 at 72 h [22] of the same compound?
**A.** 141 µM

**Q.** What about the IC50 at 72 h [23] of the same compound?
**A.** 210 µM

**Q.** And the IC50 (MCF7 [16])?
**A.** 1.93 µM

**Q.** And the IC50 (HeLa [24])?
**A.** 1.93 µM
